Source: US9753034B2, “Process for the identification of a compound which inhibits the binding of the first bromodomain of each of human BRD-2, BRD-3, and BRD-4” (GLAXOSMITHKLINE LLC, priority 2009, dated 2017)

Tests used:
[1] = biological target: T1, Bromodomain BRD-2 (1-473) (Homo sapiens, UniProt P25440); assay: Fluorescence Anisotropy Binding Assay, BRD-2; conditions: displacement of fluorescent ligand (Reference compound K) 5 nM, BRD-2 75 nM; read-out: pIC50 in the BRD-2 assay (converted)
T1 construct: Recombinant Human Bromodomains (BRD-2 (1-473), BRD-3 (1-435) and BRD-4 (1-477)); six-His tag (N); made in house; host or cells: E. coli (pET15b vector)
Method: (§1) Fluorescence Anisotropy Binding Assay
(§2) All data was normalized to the mean of 16 high and 16 low control wells on each plate. A four parameter curve fit of the following form was then applied: y=a+((b−a)/(1+(10^x/10^c)^d)
(§3) Where ‘a’ is the minimum, ‘b’ is the Hill slope, ‘c’ is the pIC50 and ‘d’ is the maximum.
(§4) The His-tagged Bromodomain was extracted from E. coli cells using 0.1 mg/ml lysozyme and sonication. […] Further purification was completed by Superdex 200 prep grade size exclusion column. Purified protein was stored at −80 C in 20 mM HEPES pH 7.5 and 100 mM NaCl.
(§5) 10 μl of this reaction mixture was added using a micro multidrop to wells containing 100 nl of various concentrations of test compound or DMSO vehicle (1% final) in Greiner 384 well Black low volume microtitre plate and equilibrated in dark 60 mins at room temperature.

[2] = biological target: T2, Bromodomain BRD-3 (1-435) (Homo sapiens, UniProt Q15059); assay: Fluorescence Anisotropy Binding Assay, BRD-3; conditions: displacement of fluorescent ligand (Reference compound K) 5 nM, BRD-3 75 nM; read-out: pIC50 in the BRD-3 assay (converted)
T2 construct: Recombinant Human Bromodomains (BRD-2 (1-473), BRD-3 (1-435) and BRD-4 (1-477)); six-His tag (N); made in house; host or cells: E. coli (pET15b vector)
Method: as §1, §2, §3, §4, §5

[3] = biological target: Bromodomain BRD-4 (1-477) (Homo sapiens, UniProt O60885); assay: biochemical; conditions: pIC50 in the BRD-4 assay, displacement of fluorescent ligand (Reference compound K) 5 nM, BRD-4 75 nM
Method: as §1, §2, §3, §4, §5

T2 sequence (Q15059 1-435): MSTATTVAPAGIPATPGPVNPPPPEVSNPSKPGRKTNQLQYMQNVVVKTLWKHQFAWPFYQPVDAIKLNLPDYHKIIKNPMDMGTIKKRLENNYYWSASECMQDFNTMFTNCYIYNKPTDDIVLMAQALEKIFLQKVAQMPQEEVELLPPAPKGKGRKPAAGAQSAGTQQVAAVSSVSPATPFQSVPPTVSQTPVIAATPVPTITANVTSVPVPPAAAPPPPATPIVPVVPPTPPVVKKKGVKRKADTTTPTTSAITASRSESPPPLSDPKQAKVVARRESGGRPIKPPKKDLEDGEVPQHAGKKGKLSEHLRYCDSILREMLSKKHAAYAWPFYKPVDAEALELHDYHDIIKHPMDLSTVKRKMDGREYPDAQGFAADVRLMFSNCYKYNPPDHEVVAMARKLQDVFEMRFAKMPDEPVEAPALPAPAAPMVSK
T1 sequence (P25440 1-473): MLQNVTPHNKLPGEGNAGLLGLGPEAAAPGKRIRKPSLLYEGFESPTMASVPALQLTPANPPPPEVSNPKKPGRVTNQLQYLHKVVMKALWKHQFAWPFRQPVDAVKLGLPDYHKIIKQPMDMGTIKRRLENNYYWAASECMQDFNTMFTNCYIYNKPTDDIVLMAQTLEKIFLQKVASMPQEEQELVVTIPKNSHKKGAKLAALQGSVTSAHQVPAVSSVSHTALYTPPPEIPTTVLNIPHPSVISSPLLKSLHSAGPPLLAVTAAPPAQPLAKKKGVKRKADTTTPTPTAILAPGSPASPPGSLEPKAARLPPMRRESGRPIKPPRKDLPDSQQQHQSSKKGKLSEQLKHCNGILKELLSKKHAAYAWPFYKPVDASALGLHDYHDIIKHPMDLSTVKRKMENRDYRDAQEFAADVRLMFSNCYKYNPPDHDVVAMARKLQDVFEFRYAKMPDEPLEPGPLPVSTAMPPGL

Row | Structure (SMILES) | IC50 [1] [nM] | IC50 [2] [nM] | IC50 [3] [nM]
1 | CNCc1ccc(-c2ccc3c(c2)[C@H](NC(=O)OC(C)C)C[C@H](C)N3C(C)=O)cc1 [Compound (IV), 1-methylethyl ((2S,4R)-1-acetyl-2-methyl-6-{4-[(methylamino)methyl]pheny}-1,2,3,4-tetrahydro-4-quinolinyl)carbamate] | ≤ 1000 | ≤ 1000 | ≤ 1000
2 | CC(=O)N1c2ccc(-c3ccc(C(=O)O)cc3)cc2[C@H](Nc2ccc(Cl)cc2)C[C@@H]1C [Compound (II), 4-{(2S,4R)-1-acetyl-4-[(4-chlorophenyl)amino]-2-methyl-1,2,3,4-tetrahydro-6-quinolinyl}benzoic acid] | ≤ 316 | ≤ 316 | 
